Key:
ACK1 [1] = biological target: T1, ACK1 (Homo sapiens, UniProt Q07912); assay: Reaction Biology 33P Hotspot assay; assay type: biochemical
ACK1 [2] = biological target: T1, ACK1; assay: ACK1 IC50 (Table 1); assay type: biochemical
[3] = test system: ACK1 autophosphorylation (Tyr284); conditions: HEK293 cells, 2 μM; cited from earlier work
A549 lung cancer cell = conditions: 10 μM; cited from earlier work
[4] = test system: AKT Tyr176 phosphorylation; conditions: pancreatic cancer cells; cited from earlier work
[5] = test system: AR Tyr267 phosphorylation; conditions: cited from earlier work
[6] = test system: castration and radioresistant prostate xenograft tumor; conditions: cited from earlier work
ACK1 [7] = biological target: T1, ACK1; assay: ACK1 ELISA; assay type: biochemical; conditions: read-out: ACK1 ELISA % Inhibition at 100 nM
[8] = test system: ACK1 in NCI-H1703 human non-small cell lung cancer cells; conditions: read-out: IC50 for ACK1 inhibition in NCI-H1703 cells (ELISA); cited from earlier work
[9] = mouse models; cited from earlier work

T1 sequence (Q07912 whole entry): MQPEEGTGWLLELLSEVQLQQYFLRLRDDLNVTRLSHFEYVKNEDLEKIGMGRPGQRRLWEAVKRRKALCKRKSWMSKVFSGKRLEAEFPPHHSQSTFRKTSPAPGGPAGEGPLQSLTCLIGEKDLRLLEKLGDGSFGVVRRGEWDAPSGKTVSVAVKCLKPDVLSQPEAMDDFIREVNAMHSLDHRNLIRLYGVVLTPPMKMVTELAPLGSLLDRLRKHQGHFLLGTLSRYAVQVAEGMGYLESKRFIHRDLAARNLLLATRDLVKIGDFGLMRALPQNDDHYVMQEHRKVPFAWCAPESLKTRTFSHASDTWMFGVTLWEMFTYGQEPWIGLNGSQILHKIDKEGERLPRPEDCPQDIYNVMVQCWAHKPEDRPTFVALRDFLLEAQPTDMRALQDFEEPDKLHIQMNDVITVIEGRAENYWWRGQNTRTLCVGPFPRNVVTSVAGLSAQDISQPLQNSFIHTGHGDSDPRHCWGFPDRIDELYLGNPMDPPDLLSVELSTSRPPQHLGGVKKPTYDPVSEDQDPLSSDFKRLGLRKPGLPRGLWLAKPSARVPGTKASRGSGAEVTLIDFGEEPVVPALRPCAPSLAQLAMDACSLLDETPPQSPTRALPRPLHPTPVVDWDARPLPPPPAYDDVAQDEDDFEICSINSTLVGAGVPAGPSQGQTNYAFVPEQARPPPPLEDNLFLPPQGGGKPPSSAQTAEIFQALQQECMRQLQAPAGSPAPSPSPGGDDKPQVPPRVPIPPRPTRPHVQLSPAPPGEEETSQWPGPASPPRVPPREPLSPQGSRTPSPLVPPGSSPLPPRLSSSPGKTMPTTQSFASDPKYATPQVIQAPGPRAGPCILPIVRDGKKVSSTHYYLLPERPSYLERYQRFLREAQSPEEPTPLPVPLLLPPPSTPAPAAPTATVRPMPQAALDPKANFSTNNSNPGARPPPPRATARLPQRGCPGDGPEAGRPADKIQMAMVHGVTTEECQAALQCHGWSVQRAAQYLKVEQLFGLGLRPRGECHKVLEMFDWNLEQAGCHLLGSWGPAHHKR

| IC50 (ACK1 [1]) [nM] | IC50 (ACK1 [2]) [nM] | SMILES | further results |
| --- | --- | --- | --- |
| 145 |  | CN1CCN(Cc2ccc(Nc3ncc(Cl)c(NCC4CCCO4)n3)cc2)CC1 (centres unmarked) [5-chloro-N^2-(4-((4-methylpiperazin-1-yl)methyl)phenyl)-N^4-((tetrahydrofuran-2-yl)methyl)pyrimidine-2,4-diamine] |  |
|  | 39.5 | CN1CCC(c2ccc(Nc3ncc(Cl)c(NCC4CCOCC4)n3)cc2)CC1 [5-chloro-N^2-(4-(1-methylpiperidin-4-yl)phenyl)-N^4-((tetrahydro-2H-pyran-4-yl)methyl)pyrimidine-2,4-diamine] |  |
|  | 85.3 | Cc1cc(Nc2ncc(Cl)c(NC[C@H]3CCCO3)n2)c(F)cc1C1CCN(C)CC1 [(R)-5-chloro-N^2-(2-fluoro-5-methyl-4-(1-methylpiperidin-4-yl)phenyl)-N^4-((tetrahydrofuran-2-yl)methyl)pyrimidine-2,4-diamine] |  |
| 198 |  | COCCOCc1cc(Nc2ncc(Cl)c(NC[C@H]3CCCO3)n2)ccc1N1CCN(C)CC1 [(R)-5-chloro-N^2-(3-((2-methoxyethoxy)methyl)-4-(4-methylpiperazin-1-yl)phenyl)-N^4-((tetrahydrofuran-2-yl)methyl)pyrimidine-2,4-diamine] |  |
|  | 43.9 | COc1cc(N2CCN(C)CC2)ccc1Nc1ncc(Cl)c(NCc2ccc(F)cc2)n1 [5-chloro-N^4-(4-fluorobenzyl)-N^2-(2-methoxy-4-(4-methylpiperazin-1-yl)phenyl)pyrimidine-2,4-diamine] | inhibition at 0.1 µM (ACK1 [7]): 91.2% |
| 167 |  | CC(C)OCc1cc(Nc2ncc(Cl)c(NC[C@H]3CCCO3)n2)ccc1N1CCN(C)CC1 [(R)-5-chloro-N^2-(3-(isopropoxymethyl)-4-(4-methylpiperazin-1-yl)phenyl)-N^4-((tetrahydrofuran-2-yl)methyl)pyrimidine-2,4-diamine] |  |
|  | 20.5 | CN1CCN(c2ccc(Nc3ncc(Cl)c(NCC4CCOCC4)n3)cc2)CC1 [5-chloro-N^2-(4-(4-methylpiperazin-1-yl)phenyl)-N^4-((tetrahydro-2H-pyran-4-yl)methyl)pyrimidine-2,4-diamine] |  |
|  | 44.7 | CN1CCC(c2cc(F)c(Nc3ncc(Cl)c(NC[C@H]4CCCO4)n3)cc2F)CC1 [(R)-5-chloro-N^2-(2,5-difluoro-4-(1-methylpiperidin-4-yl)phenyl)-N^4-((tetrahydrofuran-2-yl)methyl)pyrimidine-2,4-diamine] |  |
| 11.9 |  | COc1cc(N2CCN(C)CC2)c(F)cc1Nc1ncc(Cl)c(NCC2CCOCC2)n1 [5-chloro-N^2-(5-fluoro-2-methoxy-4-(4-methylpiperazin-1-yl)phenyl)-N4-((tetrahydro-2H-pyran-4-yl)methyl)pyrimidine-2,4-diamine] |  |
|  | 48.2 | COc1cc(N2CCN(C)CC2)ccc1Nc1ncc(Cl)c(NCc2ccccc2)n1 [N^4-benzyl-5-chloro-N^2-(2-methoxy-4-(4-methylpiperazin-1-yl)phenyl)pyrimidine-2,4-diamine] | inhibition at 0.1 µM (ACK1 [7]): 98.2% |
| 88 |  | CN1CCN(c2cccc(Nc3ncc(Cl)c(NC[C@H]4CCCO4)n3)c2)CC1 [(R)-5-chloro-N^2-(3-(4-methylpiperazin-1-yl)phenyl)-N^4-((tetrahydrofuran-2-yl)methyl)pyrimidine-2,4-diamine] |  |
|  | 19.8 | CN1CCN(c2ccc(Nc3ncc(Cl)c(NCC4CCOCC4)n3)cc2F)CC1 [5-chloro-N^2-(3-fluoro-4-(4-methylpiperazin-1-yl)phenyl)-N^4-((tetrahydro-2H-pyran-4-yl)methyl)pyrimidine-2,4-diamine] |  |
|  | 70.1 | COc1cc(N2CCN(C)CC2)ccc1Nc1ncc(Cl)c(NCc2ccc(Cl)cc2Cl)n1 [5-chloro-N^4-(2,4-dichlorobenzyl)-N^2-(2-methoxy-4-(4-methylpiperazin-1-yl)phenyl)pyrimidine-2,4-diamine] | inhibition at 0.1 µM (ACK1 [7]): 78.1% |
|  | 35.6 | CN1CCN(c2ccc(Nc3ncc(Cl)c(NCc4ccc(F)cc4)n3)cc2)CC1 [5-chloro-N^4-(4-fluorobenzyl)-N^2-(4-(4-methylpiperazin-1-yl)phenyl)pyrimidine-2,4-diamine] | inhibition at 0.1 µM (ACK1 [7]): 94% |
| 62 |  | CC(C)Oc1cc(Nc2ncc(Cl)c(NC[C@H]3CCCO3)n2)ccc1C1CCN(C)CC1 [(R)-5-chloro-N^2-(3-isopropoxy-4-(1-methylpiperidin-4-yl)phenyl)-N^4-((tetrahydrofuran-2-yl)methyl)pyrimidine-2,4-diamine] |  |
| 87.2 |  | COc1cc(Nc2ncc(Cl)c(NC[C@H]3CCCO3)n2)ccc1C1CCN(C)CC1 [(R)-5-chloro-N^2-(3-methoxy-4-(1-methylpiperidin-4-yl)phenyl)-N^4-((tetrahydrofuran-2-yl)methyl)pyrimidine-2,4-diamine] |  |

Further lines, the compound ahead of its results:

| SMILES | IC50 (ACK1 [1]) [nM] | IC50 (ACK1 [2]) [nM] | further results |
| --- | --- | --- | --- |
| COc1cc(C2CCN(C)CC2)ccc1Nc1ncc(Cl)c(NCC2CCOCC2)n1 [5-chloro-N^2-(2-methoxy-4-(1-methylpiperidin-4-yl)phenyl)-N^4-((tetrahydro-2H-pyran-4-yl)methyl)pyrimidine-2,4-diamine] |  | 20.2 |  |
| COc1cc(N2CCN(C)CC2)ccc1Nc1ncc2c(n1)N(C)c1ccccc1C(=O)N2 [Compound 3] |  |  | EGF induced ACK1 autophosphorylation (Tyr284) [3]: abolishes; A549 lung cancer cell growth (A549 lung cancer cell): inhibits |
| CN1CCN(c2ccc(Nc3ncc(Cl)c(NC[C@H]4CCCO4)n3)cc2CO)CC1 | 51 |  |  |
| CN1CCC(c2ccc(Nc3ncc(Cl)c(NCC4CCOCC4)n3)cc2F)CC1 [5-chloro-N^2-(3-fluoro-4-(1-methylpiperidin-4-yl)phenyl)-N^4-((tetrahydro-2H-pyran-4-yl)methyl)pyrimidine-2,4-diamine] |  |  | IC50 (ACK1 [2]; unit inferred): 35.9 nM |
| CN1CCN(c2ccc(Nc3ncc(Cl)c(NC[C@H]4CCCO4)n3)cc2C#N)CC1 | 112 |  |  |
| c1ccc(-c2oc3ncnc(NC[C@@H]4CCCO4)c3c2-c2ccccc2)cc1 [Compound 1b] |  |  | ACK1 dependent AKT Tyr176 phosphorylation [4]: inhibits; AR Tyr267 phosphorylation [5]: inhibits; xenograft tumor growth [6]: inhibits |
| CC(=O)N1CCN(c2ccc(Nc3ncc(Cl)c(NCC4CCOCC4)n3)cc2)CC1 [1-(4-(4-((5-chloro-4-(((tetrahydro-2H-pyran-4-yl)methyl)amino)pyrimidin-2-yl)amino)phenyl)piperazin-1-yl)ethan-1-one] | 26.6 |  |  |
| COc1c(Nc2ncc(Cl)c(NCC3CCOCC3)n2)ccc(N2CCN(C)CC2)c1F [5-chloro-N^2-(3-fluoro-2-methoxy-4-(4-methylpiperazin-1-yl)phenyl)-N^4-((tetrahydro-2H-pyran-4-yl)methyl)pyrimidine-2,4-diamine] | 87.9 |  |  |
| COc1cc(N2CCN(C)CC2)ccc1Nc1ncc(Cl)c(NCC2CCOCC2)n1 [5-chloro-N^2-(2-methoxy-4-(4-methylpiperazin-1-yl)phenyl)-N^4-((tetrahydro-2H-pyran-4-yl)methyl)pyrimidine-2,4-diamine] |  | 14.9 |  |
| COc1cc(N2CCN(C)CC2)ccc1Nc1ncc(Cl)c(NCc2ccc(C)cc2)n1 [5-chloro-N^2-(2-methoxy-4-(4-methylpiperazin-1-yl)phenyl)-N^4-(4-methylbenzyl)pyrimidine-2,4-diamine] |  | 50.8 | inhibition at 0.1 µM (ACK1 [7]): 77.6% |
| COc1cc(Oc2ccccc2)ccc1-c1nc(C2CC(C)(O)C2)n2ccnc(N)c12 (centres unmarked) [Compound 4] |  |  | IC50 [8]: 35 nM; oral bioavailability [9]: orally bioavailable |
| CC(=O)N1CCN(c2ccc(Nc3ncc(Cl)c(NCC4CCOCC4)n3)cc2OC(C)C)CC1 [1-(4-(4-((5-chloro-4-(((tetrahydro-2H-pyran-4-yl)methyl)amino)pyrimidin-2-yl)amino)-2-isopropoxyphenyl)piperazin-1-yl)ethan-1-one] | 9.87 |  |  |
| COc1cc(N2CCN(C)CC2)ccc1Nc1ncc(Cl)c(NCc2ccc(Cl)cc2)n1 [5-chloro-N^4-(4-chlorobenzyl)-N^2-(2-methoxy-4-(4-methylpiperazin-1-yl)phenyl)pyrimidine-2,4-diamine] |  |  | inhibition at 0.1 µM (ACK1 [7]): 67.9% |
| COc1ccc(CNc2nc(Nc3ccc(N4CCN(C)CC4)cc3OC)ncc2Cl)cc1 [5-chloro-N^2-(2-methoxy-4-(4-methylpiperazin-1-yl)phenyl)-N^4-(4-methoxybenzyl)pyrimidine-2,4-diamine] |  | 82.9 | inhibition at 0.1 µM (ACK1 [7]): 70.3% |
| COc1cc(N2CCN(C(C)=O)CC2)ccc1Nc1ncc(Cl)c(NCC2CCOCC2)n1 [1-(4-(4-((5-chloro-4-(((tetrahydro-2H-pyran-4-yl)methyl)amino)pyrimidin-2-yl)amino)-3-methoxyphenyl)piperazin-1-yl)ethan-1-one] | 17.3 |  |  |

Reference: US12630535B2, “Inhibitors of ACK1/TNK2 tyrosine kinase” (H. LEE MOFFITT CANCER CENTER AND RESEARCH INSTITUTE, INC., priority 2020, dated 2026)
